Test results taken from patent US9884818B2, “Sulphamoylpyrrolamide derivatives and the use thereof as medicaments for the treatment of hepatitis B” (Janssen Sciences Ireland UC, priority 2013, dated 2018).

Assays:
HBV [1] = assay: Anti-HBV activity, HepG2.117 inducibly HBV producing cell line (Tet-off), intracellular HBV DNA by realtime PCR; assay type: cell-based; details: Hepatitis B virus, HepG2.117, 72 h, HepG2.117 cells, 3 days of treatment, intracellular HBV DNA; read-out: HepG2 117 EC50
[2] = Cytotoxicity in HepG2 cells, Resazurin viability assay; details: human, HepG2 cells, HepG2 4 days CC50 (μM), incubated for 4 days, Resazurin assay
HBV [3] = assay: Anti-HBV activity, HepG2.2.15 stable transfected cell line, HBV DNA from secreted virions by realtime PCR; assay type: cell-based; details: Hepatitis B virus, HepG2.2.15, 144 h, HepG2.2.15 cells, 6 days of treatment, HBV DNA from secreted virions; read-out: HepG2 2.15 EC50

| Compound | EC50 (HBV [1]) | CC50 at 4 days [2] | EC50 (HBV [3]) |
| --- | --- | --- | --- |
| C[C@@H](NS(=O)(=O)c1cc(C(=O)Nc2cc(F)c(F)c(Cl)c2)n(C)c1)C(F)(F)F [Compound 60, N-(3-chloro-4,5-difluoro-phenyl)-1-methyl-4-[[(1R)-2,2,2-trifluoro-1-methyl-ethyl]sulfamoyl]pyrrole-2-carboxamide] | 30 nM | 24.1 µM | 20 nM |
| Cc1cc(NC(=O)c2cc(S(=O)(=O)NC(C)(C)C)cn2C)cc(F)c1F [Compound 38, 4-(tert-butylsulfamoyl)-N-(3,4-difluoro-5-methyl-phenyl)-1-methyl-pyrrole-2-carboxamide] | 20 nM | > 25 µM | 50 nM |
| CC(C)NS(=O)(=O)c1cc(C(=O)Nc2ccc(F)c(C(F)(F)F)c2)n(C)c1 [Compound 44, N-[4-fluoro-3-(trifluoromethyl)phenyl]-4-(isopropylsulfamoyl)-1-methyl-pyrrole-2-carboxamide] | 260 nM | > 25 µM | 370 nM |
| Cc1cc(NC(=O)c2cc(S(=O)(=O)NC3(CO)COC3)cn2C)ccc1F [Compound 10, N-(4-fluoro-3-methyl-phenyl)-4-[[3-(hydroxymethyl)oxetan-3-yl]sulfamoyl]-1-methyl-pyrrole-2-carboxamide] | 80 nM | > 25 µM | 110 nM |
| Cc1c(S(=O)(=O)N[C@@H](C)C(F)(F)F)cn(C)c1C(=O)Nc1ccc(F)c(Cl)c1F [Compound 209, N-(3-Chloro-2,4-difluorophenyl)-1,3-dimethyl-4-{[(1S)-2,2,2-trifluoro-1-methylethyl]sulfamoyl}-1H-pyrrole-2-carboxamide] | 90 nM | > 25 µM | 90 nM |
| CC[C@@H](C)NS(=O)(=O)c1cc(C(=O)Nc2ccc(F)c(C)c2)n(C)c1 [Compound 6, N-(4-fluoro-3-methyl-phenyl)-1-methyl-4-[[(1R)-1-methylpropyl]-sulfamoyl]pyrrole-2-carboxamide] | 20 nM | > 25 µM | 20 nM |
| Cc1c(F)ccc(NC(=O)c2cc(S(=O)(=O)NC(C)(C)C(F)(F)F)cn2C)c1F [Compound 118, N-(2,4-Difluoro-3-methylphenyl)-1-methyl-4-[(2,2,2-trifluoro-1,1-dimethylethyl)sulfamoyl]-1H-pyrrole-2-carboxamide] | 20 nM | > 25 µM | 50 nM |
| Cn1cc(S(=O)(=O)NC2(C(F)(F)F)CCC2)c(Cl)c1C(=O)Nc1ccc(F)c(Cl)c1F [Compound 219, 3-Chloro-N-(3-chloro-2,4-difluorophenyl)-1-methyl-4-{[1-(trifluoro-methyl)cyclobutyl]sulfamoyl}-1H-pyrrole-2-carboxamide] | 9 nM | > 25 µM | 10 nM |
| Cn1cc(S(=O)(=O)NC2(C)COC2)cc1C(=O)Nc1cc(F)c(F)c(Br)c1 [Compound 48, N-(3-bromo-4,5-difluoro-phenyl)-1-methyl-4-[(3-methyloxetan-3-yl)-sulfamoyl]pyrrole-2-carboxamide] | 60 nM | > 25 µM | 50 nM |
| Cc1cc(NC(=O)c2cc(S(=O)(=O)NC(C)(C)C(=O)N(C)C)cn2C)ccc1F [Compound 63, 4-[[2-(dimethylamino)-1,1-dimethyl-2-oxo-ethyl]sulfamoyl]-N-(4-fluoro-3-methyl-phenyl)-1-methyl-pyrrole-2-carboxamide] | 40 nM | > 25 µM | 60 nM |
| Cn1cc(S(=O)(=O)NCCC(F)(F)F)cc1C(=O)Nc1cc(F)c(F)c(Cl)c1 [Compound 168, N-(3-Chloro-4,5-difluorophenyl)-1-methyl-4-[(3,3,3-trifluoropropyl)sulfamoyl]-1H-pyrrole-2-carboxamide] | 320 nM | > 25 µM | 120 nM |
| Cn1cc(S(=O)(=O)NC(C)(C)C)cc1C(=O)Nc1cc(F)c(F)c(Cl)c1 [Compound 58, 4-(tert-butylsulfamoyl)-N-(3-chloro-4,5-difluoro-phenyl)-1-methyl-pyrrole-2-carboxamide] | 60 nM | > 25 µM | 90 nM |
| CC[C@@H](C)NS(=O)(=O)c1cc(C(=O)Nc2cc(F)c(F)c(Br)c2)n(C)c1 [Compound 47, N-(3-bromo-4,5-difluoro-phenyl)-1-methyl-4-[[(1R)-1-methylpropyl]-sulfamoyl]pyrrole-2-carboxamide] | 100 nM | > 25 µM | 100 nM |
| Cn1cc(S(=O)(=O)NC(C)(C)C(F)(F)F)cc1C(=O)Nc1ccc(F)c(C#N)c1 [Compound 237, N-(3-Cyano-4-fluorophenyl)-1-methyl-4-[(2,2,2-trifluoro-1,1-di-methylethyl)sulfamoyl]-1H-pyrrole-2-carboxamide] | 100 nM | > 25 µM | 80 nM |
| Cn1cc(S(=O)(=O)NC2(C)COC2)cc1C(=O)Nc1ccc(F)c(F)c1 [Compound 20, N-(3,4-difluorophenyl)-1-methyl-4-[(3-methyloxetan-3-yl)sulfamoyl]pyrrole-2-carboxamide] | 60 nM | > 25 µM | 70 nM |
| Cc1c(S(=O)(=O)N[C@H](C)C(F)(F)F)cn(C)c1C(=O)Nc1ccc(F)c(C(F)(F)F)c1 [Compound 153, N-[4-Fluoro-3-(trifluoromethyl)phenyl]-1,3-dimethyl-4-{[(1R)-2,2,2-trifluoro-1-methylethyl]sulfamoyl}-1H-pyrrole-2-carboxamide] | 150 nM | > 25 µM | 270 nM |
| Cc1cc(NC(=O)c2c(F)c(S(=O)(=O)N[C@H](C)C(F)(F)F)cn2C)cc(C#N)c1F [Compound 283, N-(3-cyano-4-fluoro-5-methyl-phenyl)-3-fluoro-1-methyl-4-[[(1R)-2,2,2-trifluoro-1-methyl-ethyl]sulfamoyl]pyrrole-2-carboxamide] | 30 nM | > 25 µM | 20 nM |
| Cn1cc(S(=O)(=O)NCC(F)(F)F)cc1C(=O)Nc1ccc(F)c(F)c1 [Compound 132, N-(3,4-Difluorophenyl)-1-methyl-4-[(2,2,2-trifluoroethyl)sulfamoyl]-1H-pyrrole-2-carboxamide] | 70 nM | > 25 µM | 80 nM |
| COC(=O)C(C)(C)NS(=O)(=O)c1cc(C(=O)Nc2ccc(F)c(C)c2)n(C)c1 [Compound 49, methyl 2-[[5-[(4-fluoro-3-methyl-phenyl)carbamoyl]-1-methyl-pyrrol-3-yl]sulfonylamino]-2-methyl-propanoate] | 20 nM | > 25 µM | 70 nM |
| CC(CC(F)(F)F)NS(=O)(=O)c1cc(C(=O)Nc2ccc(F)c(C#N)c2)n(C)c1 (stereo not drawn) [Compound 238, N-(3-Cyano-4-fluorophenyl)-1-methyl-4-[(3,3,3-trifluoro-1-methyl-propyl)sulfamoyl]-1H-pyrrole-2-carboxamide] | 110 nM | > 25 µM | 100 nM |
| CC[C@@H](C)NS(=O)(=O)c1cn(C)c(C(=O)Nc2ccc(F)c(C#N)c2)c1Cl [Compound 295, 3-chloro-N-(3-cyano-4-fluoro-phenyl)-1-methyl-4-[[(1R)-1-methyl-propyl]sulfamoyl]pyrrole-2-carboxamide] | 30 nM | > 25 µM | 20 nM |
